Experimental data: patent publication US20080279957A1, “Immunomodulating compositions from bile” (Lorus Therapeutics Inc., priority 2000, published 2008)
Several values for one entry are separate records, joined by “and”; a condition that tells them apart may be missing. Equal values may be shown once.

Columns and labels:
Format in all cases: cell-based
human PBMN [1] = assay: Direct TNF release from PBMN by composition in the absence of LPS (ELISA); details: 24 hrs; seven patient samples
Description: (§1) Peripheral blood mononuclear cells (PBMNs) were isolated by gradient centrifugation on Ficoll-Hypaque (Pharmacia). The PBMN were washed twice with phosphate buffered saline (PBS), counted and resuspended in RPMI 1640 culture medium (Gibco Labs) at a concentration of 10^6 cells/0.5 ml. These cells were cultured in 24 well, flat-bottomed tissue culture plates (Falcon, Becton, Dickinson). […] The total volume was then made up to 1 ml/well with RPMI. As control, PBS was used instead of composition. The cells were cultured for 2, 6, 24, 48 and 72 hours at 37° C. in a humidified 5% CO2 incubator. At the end of each incubation period, the cells were harvested and cell free culture fluids were obtained by centrifugation at 9000 rpm for 10 minutes. The samples were then stored at −70° C. until ELISA for cytokines was carried out (within 2 weeks).
The direct stimulatory effect of Batch B0203 was tested at different volumes and then at different times.
Batch B0203 stimulated maximum TNF-release at about 100 μl (Table 16). […] Thus, the composition was able to stimulate TNF-release on its own, that is in the absence of LPS and the curves for TNF-release were similar to when the composition and LPS were combined.

human PBMN [2] = assay: LPS-stimulated release of cytokines other than TNF by PBMN, LPS plus composition; details: LPS (50 ng/ml) alone
Description: as §1, with “In the studies of TNF, whole blood was drawn from 5 healthy subjects into heparinized Vacutainer tubes. Peripheral” for “Peripheral”
Experiments were performed to determine whether the composition of the invention would impair LPS-stimulated release. […] The effects on the other cytokines IL-6, IL-8, IFN-gamma and GM-CSF were not as marked. However, in no instance did the compositions tested augment the effect of LPS stimulated release of cytokines.

human PBMN [3] = assay: LPS-induced release of TNF by PBMN, LPS plus composition or fractions (Example 9)
Description: as §1, with “In the studies of TNF, whole blood was drawn from 5 healthy subjects into heparinized Vacutainer tubes. Peripheral” for “Peripheral”, “As control, PBS was used instead of composition.” left out
The effect of different volumes of the compositions of the invention in inhibiting LPS stimulated release of TNF was examined.
This separation technique is used for small polar substances. […] The precipitate and the soluble fraction were separated. Both the precipitate and soluble fraction were taken to dryness by lyophilization. The precipitate and soluble fraction were reconstituted in aqueous solutions and both analyzed by RP-HPLC and tested for TNF-α releasing activity.
In the next series of experiments, the activity of the precipitate and supernatants were evaluated after their separation by C18 RP-HPLC. The precipitate and supernatant were collected as 2 pools from RP-HPLC: 2 to 21 min and 21 to 46 min.

human PBMN [4] = assay: TNF release by PBMN with LPS plus composition in the presence of Polymyxin
Description: as §1, with “In the studies of TNF, whole blood was drawn from 5 healthy subjects into heparinized Vacutainer tubes. Peripheral” for “Peripheral”
Polymyxin inhibits the action of endotoxin on leukocytes. […] In the absence of polymyxin, LPS induces 517 pg/ml of TNF-α, whereas in the presence of Polymyxin 11 pg/ml of TNF-α is released.
Initially, the effect of different fractions were examined in the presence of Polymyxin. […] Batch BO213 was 369 and high. […] Therefore, whether the hyperosmolarity of the samples was inhibiting or enhancing TNF-α release was investigated as set out below.

[5] = LPS 50 ng, first line printed LPS (1) (Table 31)
[6] = LPS 50 ng, second line printed LPS (1) (Table 31)

Lipopolysaccharide [LPS]
TNF Released (human PBMN [1]): 1501 ± 284 pg/mL
GM-CSF released (human PBMN [2]): 54 ± 65
IFN-γ released (human PBMN [2]): 30 ± 24
IL-6 released (human PBMN [2]): 2320 ± 1081
IL-8 released (human PBMN [2]): 118 ± 62 ng/mL
IL-16 released (human PBMN [2]): 1314 ± 723
IL-1α released (human PBMN [2]; six patients): 129 ± 135
TNF Released (human PBMN [3]; 1X 199 Medium, LPS 10 ng/10 μl, 1 patient): 124 pg/mL
TNF Released (human PBMN [3]; 1X 199 Medium, LPS 50 ng/10 μl, 1 patient): 155 pg/mL
TNF Released (human PBMN [3]; 1X 199 Medium, LPS 100 ng/10 μl, 1 patient): 147 pg/mL
TNF Released (human PBMN [3]; 1X 199 Medium, LPS 200 ng/10 μl, 1 patient): 213 pg/mL
TNF Released (human PBMN [3]; 1X 199 Medium, LPS 1000 ng/10 μl, 1 patient): 404 pg/mL
TNF Released (human PBMN [3]; 1640 RPMI Medium, LPS 50 ng/10 μl, 1 patient): 356 pg/mL
TNF Released (human PBMN [3]; 1640 RPMI Medium, LPS 100 ng/10 μl, 1 patient): 323 pg/mL
TNF Released (human PBMN [3]; 1640 RPMI Medium, LPS 200 ng/10 μl, 1 patient): 455 pg/mL
TNF Released (human PBMN [3]; 1640 RPMI Medium, LPS 1000 ng/10 μl, 1 patient): 558 pg/mL
TNF Released by LPS (50 ng/ml) (human PBMN [3]; 2 hr): 697 pg/mL and 697 ± 94 pg/mL
TNF Released by LPS (50 ng/ml) (human PBMN [3]; 24 hr): 800 ± 222 pg/mL
TNF Released by LPS (50 ng/ml) (human PBMN [3]; 48 hr): 170 ± 149 pg/mL
TNF Released by LPS (50 ng/ml) (human PBMN [3]; 72 hr): 132 ± 147 pg/mL
TNF Released -LPS (human PBMN [3]; LPS 50 ng (Table 29)): 0 pg/mL
TNF Released -LPS (human PBMN [3]; LPS 50 ng (Table 30)): 0 pg/mL
TNF Released −LPS (human PBMN [3]; LPS 50 ng/10 μl (Table 24)): 0 pg/mL
TNF Released -LPS (human PBMN [3]; LPS 50 ng/10 μl (Table 25)): 0 pg/mL
TNF Released -LPS (human PBMN [3]; LPS 50 ng/10 μl (Table 26)): 0 pg/mL
TNF Released Total (human PBMN [3]; LPS 50 ng/10 μl, 1X 199 Medium, 2 patients (Table 26)): 136 ± 38 pg/mL
TNF Released Total (human PBMN [3]; LPS 50 ng/10 μl, 1X 199 Medium, 5 patients (Table 24)): 161 ± 50 pg/mL
TNF Released Total (human PBMN [3]; LPS 50 ng/10 μl, 199 Medium, 2 patients (Table 25)): 194 ± 93 pg/mL
TNF Released Total (human PBMN [3]; LPS 50 ng, 199 Medium, 5 patients (Table 29)): 322 ± 115 pg/mL
TNF Released Total (human PBMN [3]; LPS 50 ng, 199 Medium, 5 patients (Table 30)): 99 ± 43 pg/mL
TNF Released -LPS (human PBMN [3]; [5]): 0 pg/mL
TNF Released Total (human PBMN [3]; [5]): 136 ± 62 pg/mL
TNF Released -LPS (human PBMN [3]; [6]): 0 pg/mL
TNF Released Total (human PBMN [3]; [6]): 81 ± 25 pg/mL
TNF Released (human PBMN [3]; LPS (50 ng/ml) alone, Table 10): 915 ± 763
TNF Released −LPS (human PBMN [3]; absence of Polymyxin, 200 μl, 5 patients (Table 22)): 0 pg/mL
TNF Released Total (human PBMN [3]; absence of Polymyxin, composition and fractions 200 μl, LPS 50 ng/10 μl, 5 patients (Table 22)): 219 pg/mL
TNF Released −LPS (human PBMN [3]; absence of Polymyxin, footnote 200 μl, 3 patients (Table 23)): 0 pg/mL
TNF Released Total (human PBMN [3]; absence of Polymyxin, footnote: composition and fractions 200 μl, LPS 50 ng/10 μl, 3 patients (Table 23)): 195 ± 72 pg/mL
TNF Released −LPS (human PBMN [3]; no additive, LPS 50 ng/10 μl, composition 200 μl (Table 19)): 0 pg/mL
TNF Released Total (human PBMN [3]; no additive, LPS 50 ng/10 μl, composition 200 μl, 3 patients (Table 19)): 517 pg/mL and 517 ± 118 pg/mL
TNF Released Total (human PBMN [4]; Polymyxin 50.000 units/ml, composition and fractions 200 μl, LPS 50 ng/10 μl, 2 patients (Table 21)): 31 ± 31 pg/mL
TNF Released −LPS (human PBMN [4]; Polymyxin 50,000 units/ml, LPS 50 ng/10 μl, composition 200 μl (Table 19)): 0 pg/mL
TNF Released Total (human PBMN [4]; Polymyxin 50,000 units/ml, LPS 50 ng/10 μl, composition 200 μl, 8 patients (Table 19)): 11 pg/mL and 11 ± 7 pg/mL
TNF Released Total (human PBMN [4]; Polymyxin 50,000 units/ml, composition and fractions 200 μl, LPS 50 ng/10 μl, 5 patients (Table 20)): 40 ± 25 pg/mL
TNF Released −LPS (human PBMN [4]; Polymyxin, 200 μl, 2 patients (Table 21)): 0 pg/mL
TNF Released −LPS (human PBMN [4]; Polymyxin, 200 μl, 5 patients (Table 20)): 0 pg/mL
